Measurements published in patent publication US7947257B2 (Archimedes Development Limited, priority 2003, dated 2011).

Assay: Pharmacokinetic performance of intranasal granisetron formulations in sheep (plasma granisetron by HPLC)
Assay type: in vivo
Conditions: in words
Protocol: A group of five female sheep was used, each weighing around 35 kg. The formulations were administered to a randomized cross-over design. […] This dose was provided by administering 0.4 ml of each formulation via a spray device with the dose volume being divided equally between both nostrils.
Blood samples were collected over a 360 minute period following dosing and plasma separated. […] Pharmacokinetic parameters were calculated from the plasma data.

absorption by the intranasal route: well absorbed
Compound: CN1C2CCCC1CC(NC(=O)c1nn(C)c3ccccc13)C2 (stereo not shown) [Granisetron, 1-methyl-N-(9-methyl-9-azabicyclo[3.3.1]non-3-yl)-1H-indazole-3-carboxamide]
